Results on one compound are retold here after patent US11590092B2, “Skin probiotic” (The Regents of the University of California, priority 2014, dated 2023).

Structures are written as SMILES. In brackets after ≈: the same amount, converted by molar mass.

Experiment [1] concerns USA300. Put plainly: MBC assay against USA300. It counts as cell-based, Staphylococcus aureus. The procedure: To determine the MBC of propionic acid, USA300 (10^6 CFU/ml) were incubated with propionic acid at various concentrations (1.25-100 mM in PBS) as indicated in each individual experiment in media on a 96-well microplate (100 μl per well) overnight. The control received only PBS. After incubation, the bacteria were diluted 1:10-1:10^6 with PBS. […] To determine the pH effect on the bacterial growth, USA300 in TSB was incubated with 2.5 mM propionic acid on a 96-well microplate (100 μl per well) overnight before spotting on an agar plate.
To determine the minimal bactericidal concentration (MBC) and minimal fungicidal concentration (MFC) of propionic acid, microorganisms (10^6 colony forming units (cfu)/ml) were incubated overnight in media with propionic acid (1.25-2,000 mM) in a 96-well microplate (100 μl per well). The control only received PBS. After incubation, the microorganisms were diluted 1:10-1:10^6 into PBS. […]

Experiment [2] concerns USA300. The experiment can be described thus: Measurement of intracellular pH of USA300 (cFSE probe). The note with it: 25 mM propionic acid, vs PBS. In kind it is cell-based, Staphylococcus aureus. The procedure: Measurement of intracellular pH. […] A drop in relative fluorescence indicated the decrease in intracellular pH. […] The fluorescence of the bacteria-free supernatant was measured and deducted from values for the treated suspensions.
Fluorescence was measured for 5 min every min using an excitation wavelength of 490 nm and an emission wavelength of 520 nm. A reduction in relative fluorescence reflected a decrease in intracellular pH. Fluorescence of bacteria-free supernatant obtained by centrifugation at 5,000×g for 5 min after the 5-min assay was measured to correct for background fluorescence. Calibration curves were obtained by incubation of untreated, cFSE-loaded bacteria in buffer containing 50 mM glycine, 50 mM citric acid, 50 mM Na2HPO4.2H2O and 50 mM KCl adjusted to various pH values from 4-10. 1 μM valinomycin and nigericin (Sigma) were added to equilibrate the intracellular and extracellular pH.

The test system of the next experiment is E. coli. The experiment can be described thus: Minimal bactericidal concentration test against E. coli. It counts as cell-based, Escherichia coli. Particulars: MBC test. As for the experimental part: To determine the minimal bactericidal concentration (MBC) and minimal fungicidal concentration (MFC) of propionic acid, microorganisms (10^6 colony forming units (cfu)/ml) were incubated overnight in media with propionic acid (1.25-2,000 mM) in a 96-well microplate (100 μl per well). The control only received PBS. After incubation, the microorganisms were diluted 1:10-1:10^6 into PBS. The dilutions (5 μl) were spotted onto agar media to count cfu; MBC/MFC were determined at 99.9% killing level. To determine the effect of pH on growth of S. aureus USA300, the bacterium was incubated in TSB at pH 5.8 and 6.8, and TSB with 25 mM propionic acid at pH 5.8 and 6.8 (buffered with 4-(2-hydroxyethyl)-1-piperazineethanesulfonic acid (HEPES)) in a 96-well microplate overnight before spotting onto agar plates.

For orientation: MBC means the lowest tested concentration that kills the bacteria rather than only halting them. Read a high MBC as less potent killing. Turning to `CCC(=O)O` [propionic acid], in the experiment on USA300 [1] (25 mM), the “antimicrobial activity against USA300” value is given as “excellent antimicrobial activity”. Besides, the “bacterial numbers of USA300” value in the experiment on USA300 [1] (25 mM propionic acid (pH 5.8), 24 h, USA300 10^6 CFU) was 4.9±0.2×10^4 CFU/ml. Further, the “antimicrobial activity against USA300 after buffering” value in the experiment on USA300 [1] (25 mM propionic acid (pH 6.8) buffered with ammonium hydroxide) is given as “remained”. In the experiment with USA300 [1] (MBC test), the “concentration that completely killed USA300” value is “greater than or equal to 100 mM”. Besides, the “concentration that effectively suppressed the growth of USA300” value in the experiment on USA300 [1] (MBC test, more than 1 log10 reduction) is “greater than 25 mM”. Also, the “concentration that completely killed USA300” value with USA300 [1] (MBC test, listed as Propionic acid) is recorded as “greater than 100 mM”. In addition, the MBC in the experiment with USA300 [1] (Staphylococcus aureus, in TSB, USA300 10^6 CFU/ml, overnight) came to 25 mM (≈ 1850 µg/mL). For the same compound, in the experiment with USA300 [1] (dissolved in 4% dimethyl sufoxide, overnight), the “concentration for a complete growth inhibition of USA300” value amounted to 100 Mm. In the experiment on USA300 [1] (dissolved in 4% dimethyl sufoxide, overnight, 0-100 mM), the “MBC (>1 log10 inhibition) against USA300” value is 25 mM. Further, the “intracellular pH of USA300” value in the experiment on USA300 [2] was “considerably lowered”. In the experiment on E. coli, the “concentration that completely killed E. coli” value is at least 50 mM and the “concentration that effectively suppressed the growth of E. coli” value is recorded as “greater than 10 mM”.
